ChEMBL document CHEMBL1142027, “In vivo incorporation of an alkyne into proteins in Escherichia coli” (Bioorg Med Chem Lett, 2005)
≈ marks a conversion by molar mass, not a printed value.

System: Escherichia coli
Assay: Inhibitory concentration of compound was determined against Escherichia coli in the absence of alkynyl amino acid 1
Type: functional, organism-based

With O=C(N[C@H](CO)[C@H](O)c1ccc([N+](=O)[O-])cc1)C(Cl)Cl [CHLORAMPHENICOL] the IC50 was 5 mg/L (≈ 15.5 µM).
